Laboratory results published in ChEMBL document CHEMBL3885881, “DrugMatrix”.

Organism: Rattus norvegicus
Assay: DrugMatrix - Regimen: Daily Repeat
Format: toxicity, organism-based, Sprague-Dawley
Design: regimen Daily Repeat, gender Male, age 6-8 weeks
Details: in vivo, po, route oral GAVAGE, vehicle .5 % CMC; for ABSOLUTE BASOPHIL / ABSOLUTE EOSINOPHIL / ABSOLUTE LYMPHOCYTE / ABSOLUTE MONOCYTE / ABSOLUTE SEGMENTED NEUTROPHIL / BASOPHIL / EOSINOPHIL / ERYTHROCYTE COUNT / HEMATOCRIT / HEMOGLOBIN / LEUKOCYTE COUNT / LYMPHOCYTE / MEAN CORPUSCULAR HEMOGLOBIN / MEAN CORPUSCULAR HEMOGLOBIN CONCENTRATION / MEAN CORPUSCULAR VOLUME / MONOCYTE / NEUTROPHIL / NUCLEATED RED BLOOD CELLS / PLATELET COUNT: tissue Blood; for ALANINE AMINOTRANSFERASE / ALBUMIN / ALKALINE PHOSPHATASE / ASPARTATE AMINOTRANSFERASE / BLOOD UREA NITROGEN / CARBON DIOXIDE / CHLORIDE / CHOLESTEROL / CREATINE PHOSPHOKINASE / CREATININE / GLUCOSE / LACTATE DEHYDROGENASE / LIPASE / PHOSPHORUS / POTASSIUM / SODIUM / TOTAL BILIRUBIN / TOTAL PROTEIN / URIC ACID: tissue Plasma
[1] = 0 mg/kg, 72 h, dose level Control, time 3 day
[2] = 0 mg/kg, 120 h, dose level Control, time 5 day
[3] = 50 mg/kg, 72 h, dose level Low, time 3 day

CC(=O)O[C@]1(C(C)=O)CC[C@H]2[C@@H]3C=C(Cl)C4=CC(=O)[C@@H]5C[C@@H]5[C@]4(C)[C@H]3CC[C@@]21C [CYPROTERONE ACETATE]
ABSOLUTE BASOPHIL [1]: 0 CELLS/uL | ABSOLUTE EOSINOPHIL [1]: 0 CELLS/uL | ABSOLUTE LYMPHOCYTE [1]: 12191.17 CELLS/uL | ABSOLUTE MONOCYTE [1]: 183.17 CELLS/uL | ABSOLUTE SEGMENTED NEUTROPHIL [1]: 1192.33 CELLS/uL | BASOPHIL [1]: 0% | EOSINOPHIL [1]: 0% | ERYTHROCYTE COUNT [1]: 5.51 x10E6/uL | HEMATOCRIT [1]: 35.45% | HEMOGLOBIN [1]: 13.82 G/DL | LEUKOCYTE COUNT [1]: 13.57 x10E3/uL | LYMPHOCYTE [1]: 89.83% | MEAN CORPUSCULAR HEMOGLOBIN [1]: 25.1 pg | MEAN CORPUSCULAR HEMOGLOBIN CONCENTRATION [1]: 38.98 G/DL | MEAN CORPUSCULAR VOLUME [1]: 64.42 fL | MONOCYTE [1]: 1.33% | NEUTROPHIL [1]: 8.83% | NUCLEATED RED BLOOD CELLS [1]: 0 /100WBC | PLATELET COUNT [1]: 1118.17 x10E3/uL | ALANINE AMINOTRANSFERASE [1]: 55 u/L | ALBUMIN [1]: 4.15 G/DL | ALKALINE PHOSPHATASE [1]: 449.5 u/L | ASPARTATE AMINOTRANSFERASE [1]: 112.83 u/L | BLOOD UREA NITROGEN [1]: 17.33 mg/dL | CARBON DIOXIDE [1]: 29.5 mmol/L | CHLORIDE [1]: 101 MEQ/L | CHOLESTEROL [1]: 70 mg/dL | CREATINE PHOSPHOKINASE [1]: 1325.83 u/L | CREATININE [1]: 0.18 mg/dL | GLUCOSE [1]: 171.5 mg/dL | LACTATE DEHYDROGENASE [1]: 386 u/L | LIPASE [1]: 10 u/L | PHOSPHORUS [1]: 11.57 mg/dL | POTASSIUM [1]: 6.21 MEQ/L | SODIUM [1]: 141.65 MEQ/L | TOTAL BILIRUBIN [1]: 0.15 mg/dL | TOTAL PROTEIN [1]: 5.75 G/DL | URIC ACID [1]: 1.28 mg/dL | ABSOLUTE BASOPHIL [2]: 0 CELLS/uL | ABSOLUTE EOSINOPHIL [2]: 138.17 CELLS/uL | ABSOLUTE LYMPHOCYTE [2]: 13283.17 CELLS/uL | ABSOLUTE MONOCYTE [2]: 303.83 CELLS/uL | ABSOLUTE SEGMENTED NEUTROPHIL [2]: 1308.17 CELLS/uL | BASOPHIL [2]: 0% | EOSINOPHIL [2]: 1% | ERYTHROCYTE COUNT [2]: 5.32 x10E6/uL | HEMATOCRIT [2]: 33.8% | HEMOGLOBIN [2]: 13.63 G/DL | LEUKOCYTE COUNT [2]: 15.03 x10E3/uL | LYMPHOCYTE [2]: 88.33% | MEAN CORPUSCULAR HEMOGLOBIN [2]: 25.68 pg | MEAN CORPUSCULAR HEMOGLOBIN CONCENTRATION [2]: 40.35 G/DL | MEAN CORPUSCULAR VOLUME [2]: 63.67 fL | MONOCYTE [2]: 1.83% | NEUTROPHIL [2]: 8.83% | NUCLEATED RED BLOOD CELLS [2]: 0 /100WBC | PLATELET COUNT [2]: 1097.5 x10E3/uL | ALANINE AMINOTRANSFERASE [2]: 54.5 u/L | ALBUMIN [2]: 4.27 G/DL | ALKALINE PHOSPHATASE [2]: 337 u/L | ASPARTATE AMINOTRANSFERASE [2]: 94.67 u/L | BLOOD UREA NITROGEN [2]: 17 mg/dL | CARBON DIOXIDE [2]: 28.33 mmol/L | CHLORIDE [2]: 101.5 MEQ/L | CHOLESTEROL [2]: 71.33 mg/dL | CREATINE PHOSPHOKINASE [2]: 628.17 u/L | CREATININE [2]: 0.19 mg/dL | GLUCOSE [2]: 177.83 mg/dL | LACTATE DEHYDROGENASE [2]: 500.5 u/L | LIPASE [2]: 9.5 u/L | PHOSPHORUS [2]: 12.3 mg/dL | POTASSIUM [2]: 5.63 MEQ/L | SODIUM [2]: 143.03 MEQ/L | TOTAL BILIRUBIN [2]: 0.2 mg/dL | TOTAL PROTEIN [2]: 6.02 G/DL | URIC ACID [2]: 1.5 mg/dL | ABSOLUTE BASOPHIL [3]: 0 CELLS/uL | ABSOLUTE EOSINOPHIL [3]: 48.33 CELLS/uL | ABSOLUTE LYMPHOCYTE [3]: 14035.67 CELLS/uL | ABSOLUTE MONOCYTE [3]: 48.33 CELLS/uL | ABSOLUTE SEGMENTED NEUTROPHIL [3]: 1667.67 CELLS/uL | BASOPHIL [3]: 0% | EOSINOPHIL [3]: 0.33% | ERYTHROCYTE COUNT [3]: 5.31 x10E6/uL | HEMATOCRIT [3]: 35.1% | HEMOGLOBIN [3]: 13.77 G/DL | LEUKOCYTE COUNT [3]: 15.8 x10E3/uL | LYMPHOCYTE [3]: 88.67% | MEAN CORPUSCULAR HEMOGLOBIN [3]: 25.93 pg | MEAN CORPUSCULAR HEMOGLOBIN CONCENTRATION [3]: 39.23 G/DL | MEAN CORPUSCULAR VOLUME [3]: 66.13 fL | MONOCYTE [3]: 0.33% | NEUTROPHIL [3]: 10.67% | NUCLEATED RED BLOOD CELLS [3]: 0 /100WBC | PLATELET COUNT [3]: 1211 x10E3/uL | ALANINE AMINOTRANSFERASE [3]: 71.67 u/L | ALBUMIN [3]: 4.43 G/DL | ALKALINE PHOSPHATASE [3]: 396.67 u/L | ASPARTATE AMINOTRANSFERASE [3]: 84.67 u/L | BLOOD UREA NITROGEN [3]: 21.67 mg/dL | CARBON DIOXIDE [3]: 28 mmol/L | CHLORIDE [3]: 100.67 MEQ/L | CHOLESTEROL [3]: 88.33 mg/dL | CREATINE PHOSPHOKINASE [3]: 202.33 u/L | CREATININE [3]: 0.15 mg/dL | GLUCOSE [3]: 155.67 mg/dL | LACTATE DEHYDROGENASE [3]: 202 u/L | LIPASE [3]: 10.67 u/L | PHOSPHORUS [3]: 11.13 mg/dL | POTASSIUM [3]: 6.55 MEQ/L | SODIUM [3]: 141.9 MEQ/L | TOTAL BILIRUBIN [3]: 0.13 mg/dL | TOTAL PROTEIN [3]: 6.27 G/DL | URIC ACID [3]: 1.47 mg/dL
